PubChem BioAssay (NCI)
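Method: 48-hour compound exposure of cells in 96-well plates, five concentrations, linear interpolation of endpoints. Here, GI50 denotes the concentration required for 50% inhibition of growth. TGI marks complete inhibition of growth.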

Tests used:
Assay in all cases: DTP human tumour cell line panel, 48 h
[1] = system: SR leukemia
[2] = system: 786-0 renal
[3] = system: U251 CNS
[4] = system: CAKI-1 renal
[5] = system: TK-10 renal
[6] = system: MCF7 breast
[7] = system: NCI-H460 lung
[8] = system: PC-3 prostate
[9] = system: RXF 393 renal
[10] = system: HCT-15 colon
[11] = system: HCC-2998 colon
[12] = system: MDA-MB-231 breast
[13] = system: HOP-92 NSCLC
[14] = system: SK-OV-3 ovarian
[15] = system: UO-31 renal
[16] = system: BT-549 breast
[17] = system: HCT-116 colon
[18] = system: SK-MEL-28 melanoma
[19] = system: SW-620 colon
[20] = system: KM12 colon
[21] = system: A549 NSCLC
[22] = system: HS 578T breast
[23] = system: NCI/ADR-RES ovarian
[24] = system: SK-MEL-5 melanoma
[25] = system: HOP-62 NSCLC
[26] = system: OVCAR-8 ovarian
[27] = system: CCRF-CEM leukemia
[28] = system: SK-MEL-2 melanoma
[29] = system: IGROV1 ovarian
[30] = system: DU-145 prostate
[31] = system: LOX IMVI melanoma
[32] = system: SF-539 CNS
[33] = system: NCI-H522 lung
[34] = system: RPMI-8226 leukemia
[35] = system: MOLT-4 leukemia
[36] = system: NCI-H23 lung
[37] = system: SF-295 CNS
[38] = system: UACC-257 melanoma
[39] = system: K-562 leukemia
[40] = system: HT29 colon
[41] = system: OVCAR-4 ovarian
[42] = system: A498 renal
[43] = system: EKVX NSCLC
[44] = system: HL-60(TB) leukemia
[45] = system: OVCAR-3 ovarian
[46] = system: ACHN renal
[47] = system: SNB-19 CNS
[48] = system: MALME-3M melanoma
[49] = system: UACC-62 melanoma
[50] = system: NCI-H226 lung
[51] = system: T-47D breast
[52] = system: SN12C renal
[53] = system: SNB-75 CNS
[54] = system: M14 melanoma
[55] = system: MDA-MB-435
[56] = system: SF-268 CNS
[57] = system: OVCAR-5 ovarian
[58] = system: COLO 205 colon

With `CN(C)c1ccc(/C=N/Nc2nc(N/N=C/c3ccc(N(C)C)cc3)nc(N3CCCCC3)n2)cc1` the GI50 [1] was 0.369 µM, the TGI [1] was > 100 µM and the GI50 [2] was 1700 nM. The TGI [2] was 3.62 µM, the GI50 [3] was 2.88 µM and the TGI [3] was 14.3 µM. It also gave a GI50 [4] of 2080 nM, a TGI [4] of 5.02 µM and a GI50 [5] of 2.54 µM. For the same compound, the TGI [5] was 7.28 µM, the GI50 [6] was 2.86 µM and the TGI [6] was > 100 µM. For the same compound, the GI50 [7] was 3.21 µM, the TGI [7] was > 100 µM and the GI50 [8] was 2.57 µM. The TGI [8] was 7.91 µM, the GI50 [9] was 2120 nM and the TGI [9] was 6.12 µM. The GI50 [10] was 1.87 µM, the TGI [10] was 4.62 µM and the GI50 [11] was 2.4 µM. For the same compound, the TGI [11] was 6.67 µM, the GI50 [12] was 1.8 µM and the TGI [12] was 3.4 µM. It also gave a GI50 [13] of 1470 nM, a TGI [13] of 3.25 µM and a GI50 [14] of 2.17 µM. It also gave a TGI [14] of 4.88 µM, a GI50 [15] of 1.72 µM and a TGI [15] of 3.7 µM. For the same compound, the GI50 [16] was 15.5 µM, the TGI [16] was 58.6 µM and the GI50 [17] was 1.64 µM. It also gave a TGI [17] of 3.75 µM, a GI50 [18] of 2 µM and a TGI [18] of 4.35 µM. The GI50 [19] was 3.17 µM, the TGI [19] was > 100 µM and the GI50 [20] was 2.84 µM. The TGI [20] was 8.49 µM, the GI50 [21] was 2.99 µM and the TGI [21] was > 100 µM. It also gave a GI50 [22] of 2.09 µM, a TGI [22] of 5.57 µM and a GI50 [23] of 3.19 µM. It also gave a TGI [23] of 17 µM, a GI50 [24] of 1730 nM and a TGI [24] of 3.15 µM. For the same compound, the GI50 [25] was 2190 nM, the TGI [25] was 5.05 µM and the GI50 [26] was 3.21 µM. For the same compound, the TGI [26] was > 100 µM, the GI50 [27] was 1.21 µM and the TGI [27] was > 100 µM. For the same compound, the GI50 [28] was 1.99 µM, the TGI [28] was 3.72 µM and the GI50 [29] was 2.96 µM. For the same compound, the TGI [29] was > 100 µM, the GI50 [30] was 3.92 µM and the TGI [30] was > 100 µM. The GI50 [31] was 1610 nM, the TGI [31] was 3.19 µM and the GI50 [32] was 1.99 µM. For the same compound, the TGI [32] was 3.97 µM, the GI50 [33] was 2.06 µM and the TGI [33] was 4.56 µM. For the same compound, the GI50 [34] was 1920 nM, the TGI [34] was 5.1 µM and the GI50 [35] was 2.87 µM. For the same compound, the TGI [35] was > 100 µM, the GI50 [36] was 3.49 µM and the TGI [36] was > 100 µM. For the same compound, the GI50 [37] was 1.96 µM, the TGI [37] was 3.79 µM and the GI50 [38] was 1.83 µM. The TGI [38] was 3.67 µM, the GI50 [39] was 0.895 µM and the TGI [39] was > 100 µM. It also gave a GI50 [40] of 1.76 µM, a TGI [40] of 3.36 µM and a GI50 [41] of 5.03 µM. For the same compound, the TGI [41] was > 100 µM, the GI50 [42] was 1.58 µM and the TGI [42] was 3.51 µM. The GI50 [43] was 3.13 µM, the TGI [43] was > 100 µM and the GI50 [44] was 2200 nM. The TGI [44] was 6.71 µM, the GI50 [45] was 2.28 µM and the TGI [45] was 5.03 µM. For the same compound, the GI50 [46] was 2.68 µM, the TGI [46] was 7.68 µM and the GI50 [47] was 3.33 µM. For the same compound, the TGI [47] was > 100 µM, the GI50 [48] was 1860 nM and the TGI [48] was 3.4 µM. For the same compound, the GI50 [49] was 1.84 µM, the TGI [49] was 3.78 µM and the GI50 [50] was 2190 nM. The TGI [50] was 5.64 µM, the GI50 [51] was 2180 nM and the TGI [51] was 5.54 µM.

In the case of `N#Cc1c(-c2cccs2)cc(-c2cnccn2)nc1SCC(=O)N/N=C/c1ccccc1`, the GI50 [1] is reported as 11.2 µM, the TGI [1] is reported as 35.8 µM and the GI50 [2] is reported as 3640 nM. For the same compound, the TGI [2] was 14.4 µM, the GI50 [3] was 3.43 µM and the TGI [3] was 12.1 µM. The GI50 [4] was 3660 nM, the TGI [4] was 14.1 µM and the GI50 [5] was 4.51 µM. For the same compound, the TGI [5] was 15.3 µM, the GI50 [6] was 3.52 µM and the TGI [6] was 14.8 µM. The GI50 [7] was 3.93 µM, the TGI [7] was 13.3 µM and the GI50 [8] was 6.29 µM. For the same compound, the TGI [8] was 19.2 µM, the GI50 [9] was 2500 nM and the TGI [9] was 6.97 µM. It also gave a GI50 [10] of 6.88 µM, a TGI [10] of 27.4 µM and a GI50 [11] of 10.7 µM. The TGI [11] was 25.1 µM, the GI50 [12] was 4.23 µM and the TGI [12] was 15.1 µM. For the same compound, the GI50 [13] was 2260 nM, the TGI [13] was 8.49 µM and the GI50 [14] was 14.7 µM. For the same compound, the TGI [14] was 27.9 µM, the GI50 [52] was 6.15 µM and the TGI [52] was 18.8 µM. For the same compound, the GI50 [15] was 6.1 µM, the TGI [15] was 19.6 µM and the GI50 [53] was 3.3 µM. For the same compound, the TGI [53] was 18.5 µM, the GI50 [16] was 8.31 µM and the TGI [16] was 20.7 µM. For the same compound, the GI50 [17] was 5.14 µM, the TGI [17] was 17.3 µM and the GI50 [18] was 4.06 µM. For the same compound, the TGI [18] was 14.5 µM, the GI50 [19] was 4.97 µM and the TGI [19] was 20.2 µM. The GI50 [20] was 9.18 µM, the TGI [20] was > 100 µM and the GI50 [21] was 5.66 µM. It also gave a TGI [21] of 20.2 µM, a GI50 [22] of 6.77 µM and a TGI [22] of 31.8 µM. It also gave a GI50 [23] of 4.95 µM, a TGI [23] of 16.7 µM and a GI50 [24] of 3520 nM. It also gave a TGI [24] of 13 µM, a GI50 [25] of 3200 nM and a TGI [25] of 11 µM. It also gave a GI50 [26] of 6.01 µM, a TGI [26] of 19.4 µM and a GI50 [27] of 49.9 µM. The TGI [27] was > 100 µM, the GI50 [28] was 10.3 µM and the TGI [28] was 23 µM. The GI50 [29] was 5.09 µM, the TGI [29] was 17.3 µM and the GI50 [30] was 3.86 µM. For the same compound, the TGI [30] was 12.7 µM, the GI50 [31] was 2800 nM and the TGI [31] was 10 µM. The GI50 [32] was 6.64 µM, the TGI [32] was 19.3 µM and the GI50 [33] was 10.3 µM. For the same compound, the TGI [33] was 23.9 µM, the GI50 [34] was 3460 nM and the TGI [34] was 20.9 µM. For the same compound, the GI50 [35] was 47 µM, the TGI [35] was > 100 µM and the GI50 [37] was 4.92 µM. The TGI [37] was 17.1 µM, the GI50 [38] was 15.1 µM and the TGI [38] was 48.6 µM. For the same compound, the GI50 [39] was 10.8 µM, the TGI [39] was > 100 µM and the GI50 [40] was 4.98 µM. It also gave a TGI [40] of 21.3 µM, a GI50 [41] of 3.61 µM and a TGI [41] of 15.3 µM. The GI50 [42] was 4.46 µM, the TGI [42] was 17.3 µM and the GI50 [54] was 4.98 µM. For the same compound, the TGI [54] was 16.4 µM, the GI50 [43] was 6.48 µM and the TGI [43] was 19.4 µM. For the same compound, the GI50 [44] was > 100000 nM, the TGI [44] was > 100 µM and the GI50 [55] was 4.49 µM. The TGI [55] was 16.2 µM, the GI50 [45] was 3.88 µM and the TGI [45] was 12.3 µM. It also gave a GI50 [46] of 6.14 µM, a TGI [46] of 18.7 µM and a GI50 [56] of 10.3 µM. It also gave a TGI [56] of 24.6 µM, a GI50 [47] of 7.21 µM and a TGI [47] of 19.8 µM. For the same compound, the GI50 [48] was 3330 nM, the TGI [48] was 9.49 µM and the GI50 [57] was 10.4 µM. The TGI [57] was 23.3 µM, the GI50 [58] was 11.3 µM and the TGI [58] was > 100 µM. For the same compound, the GI50 [49] was 8.67 µM, the TGI [49] was 21 µM and the GI50 [50] was 3410 nM. It also gave a TGI [50] of 12.9 µM, a GI50 [51] of 2940 nM and a TGI [51] of 15.7 µM.
